Data: article PMC4577959 (Journal of the American Chemical Society, 2015)

Experiments:
[1] = molecular target: N2B peptide (NHR2-binding motif of E-proteins) (Homo sapiens, UniProt Q99081); details: ratio of Kd values, FP assay with flu-N2B
[2] = molecular target: fluorescein-labeled N2B peptide (NHR2-binding motif of E-proteins); assay: fluorescence polarisation

With CC[C@H](C)[C@@H]1NC(=O)[C@H](CO)NC(=O)[C@H](CCCNC(=N)N)NC(=O)[C@H](Cc2c[nH]c3ccccc23)NC(=O)[C@@H](NC(=O)[C@H](CCC(=O)O)NC(C)=O)CSSC[C@@H](C(=O)N[C@@H](CCCNC(=N)N)C(N)=O)NC(=O)[C@H](CC(C)C)NC(=O)[C@H](CCC(=O)O)NC(=O)[C@@H](NC(=O)[C@H](CC(C)C)NC(=O)[C@H](Cc2c[nH]cn2)NC(=O)[C@H](Cc2c[nH]c3ccccc23)NC(=O)[C@H](CC(C)C)NC(=O)[C@H](CCC(=O)O)NC(C)=O)CCCCn2cc(nn2)COCc2cn(nn2)CCCC[C@@H](C(N)=O)NC(=O)[C@H](CC(C)C)NC(=O)[C@H](C(C)C)NC(=O)[C@H](CCCNC(=N)N)NC1=O [CHD^DS-NHR2-3] the “enhanced affinity versus the native NHR2 coiled coil” value [1] was 5 fold.

“GST-NHR2(482–551), native Nervy homology two (NHR2) coiled coil domain of AML1-ETO (domain or fragment)” was tested, and the Kd [2] was 356 µM.
